This is an account of results in patent US8501734B2, “Medical intervention in haematological cancers” (Oncotyrol-Center for Personalized Cancer Medicine GmbH …, priority 2008, dated 2013).

For data set [1], the system named is Rh (rhabdomyosarcoma) cell lines. Particulars: read-out: IC50 growth suppression; cited from earlier work.
For data set [2] the following is noted: cited from earlier work.
Another data set relates to Akt. Particulars: cited from earlier work.
The test system of a further data set is PI 3-K, PDK1, or SGK1. The note with it: cited from earlier work.
In a further data set the test system is Akt phosphorylation. The data set can be described thus: Akt phosphorylation by Western blot with phospho-Akt antibody in OPM2 cells. The data set is classed as cell-based. As to the method: Cells were lysed in lysis-IP-Buffer supplemented with protease inhibitors and sodium orthovanadate. 10 μg of lysate were separated by SDS-PAGE (10% polyacrylamide) and transferred to methanol activated Hypond-P PVDF-membranes (Amersham, Freiburg, Germany) by semi-dry blotting. Membranes were blocked in a 3% bovine serum albumin solution or 5% non fat dry milk solution in phosphate buffered saline (PBS) with 0.1% Tween 20 (PBT). Primary antibodies were applied in blocking solution for 1 h at room temperature or over night at 4° C. Membranes were washed in PBT and incubated with corresponding secondary antibodies in 5% non fat dry milk in PBT for 1 h at room temperature. Cells were washed with PBT, incubated with ECL solution and exposed in a Fluorchem 5500 (Biozym, Oldendorf, Germany).
The efficiency of the inhibition of Akt phosphorylation was monitored by Western blotting with antibodies against phospho-Akt. Antibody for actin served as a loading control (FIG. 7B).

A further data set has as its system OPM2 cells. The data set can be described thus: Annexin V/PI apoptosis assay (FACS), OPM2 cells. The data set is classed as cell-based. Also noted: apoptosis induction: unit not given here. The note with it: OPM2 cells; for apoptosis induction, combination: Akt inhibitor + Imiquimod 20 μg/ml; for apoptosis induction, single agent: Imiquimod 20 μg/ml or Akt inhibitor alone. As to the method: (§1) After treatment adherent cells were trypsinized (as described before), and resuspended in corresponding full medium. Suspension cells or trypsinized adherent cells, supernatant and washing solution (1×PBS from washing before trypsinization) were pooled and then spun down (300 g for 3 min) washed in 2 ml and resuspended in 1000 of annexin V binding buffer and mixed with 2 μg/ml annexin V-Allophycocyanin (APC) (BD-Pharmingen, San Diego, Calif., USA) and 50 ng/ml of propidium iodide (PI; Sigma Aldrich). At least 10.000 cells were measured per sample using a Becton Dickinson FACSCalibur flow Cytometer (San Jose, Calif., USA). Percentage of Annexin V negative and PI negative cells were depicted in the figures. For the analysis of the pro-apoptotic activity of Imiquimod® in primary MM cells and non-malignant BMMCs, 5×10^5 cells BMMCs cells were treated with or without 40 μg/ml Imiquimod® for the indicated time periods. Cells were then harvested and washed twice with PBS. Detection of apoptotic cells was performed using the annexin V/PI assay according to manufacturers' instruction. Briefly, BMMCs were stained with a mixture of annexin V/FITC (Alexis Coorp., Laeufelfingen, Switzerland), propidium iodide (Sigma), anti-CD38-PE and anti-CD45-PC5 for 15 min at room temperature and immediately analyzed by flow cytometry. The percentages of viable cells (i.e. cells negative for annexin V/FITC and PI) within the MM (CD38^posCD45^low/absent) and non-MM fraction (CD38^neg/CD45^pos) were determined by flow cytometry.
Cells were cultured as described before and, treated with 40 μg/ml Imiquimod® or Gardiquimod® for 24 h, and apoptosis was assayed by AnnexinV/PI staining and FACS analysis.
(§2) Adherent cells were grown in 24-well plates to confluence and treated with 40 μg/ml Imiquimod® for 24 h. Cells were then trypsinized, suspended in full medium, stained for AnnexinV/PI and apoptosis was measured as described before. Suspension cells (250.000) were treated with 40 μg/ml Imiquimod® for 24 h, stained for Annexin/PI and apoptosis was measured as described above (Annexin V/Propidium Iodide apoptosis Assay).
(§3) OPM-2 and U266 cells (2.5×10^5 in 500 μl) were treated with either Imiquimod® alone (10 μg/500 μl), various inhibitors/drugs alone or with the combination of Imiquimod® and inhibitors for 24 or 48 h. In the controls the solvent of the drug has been added in appropriate amounts. Cells were then AnnexinV/PI stained and apoptosis measured as described before.

For data set [3], the system named is multiple myeloma cell lines. In words: Annexin V/PI apoptosis assay, multiple myeloma cell line panel. In kind it is cell-based. The note with it: OPM2, LP-1, RPMI, U266, 24 h. As to the method: as §1, §2
Data set [4] relates to Raji, Daudi, Ramos, Jurkat, C7H2 cell lines. The data set can be described thus: Annexin V/PI apoptosis assay, non-multiple myeloma suspension cell lines. The data set is classed as cell-based. The note with it: Raji, Ramos, Jurkat, 24 h. As to the method: as §1, §2
Data set [5] concerns PH domain-lacking Akts, PKA, PKC, and SGK. The note with it: concentrations as high as 50 μM; cited from earlier work.
Data set [6] deals with peripheral blood mononuclear cells (PBMCs). The data set can be described thus: Annexin V/PI apoptosis assay, PBMCs from healthy donors. The note with it: PBMCs from healthy donors, 48 h, 5 μM Akti1/2 + 20 μg/ml Imiquimod. In kind it is cell-based, human. The protocol: PBMCs were prepared using separation via Ficoll density gradient centrifugation (Biochrom AG, Berlin, Germany) according to the protocol of the manufacturer.
as §1, §2

The subject of a further data set is Flk-1. The note with it: cited from earlier work.
The next data set deals with U266 cells. In words: Annexin V/PI apoptosis assay (FACS), U266 cells. Also: key: 0 for no; + for low; ++: + indicates the range of apoptosis induction; +++: + indicates the range of apoptosis induction; ++++ for very strong apoptosis induction. Also noted: apoptosis induction: unit not given here. The data set is classed as cell-based. As to the method: as §1, §2, §3
The mark [7] stands for this setting: 24 h, Imi 20 μg/ml + drug 10 μM.
The mark [8] stands for this setting: 24 h, Imi 20 μg/ml + drug 50 μM.
Setting [9] is: 48 h, Imi 20 μg/ml + drug 10 μM.
The mark [10] stands for this setting: 48 h, Imi 20 μg/ml + drug 50 μM.

Structures can show the parent of a compound that is named as a salt.

As for `CCN(CC)CCCCN1c2ccccc2Oc2ccc(Cl)cc21` [AktX, 10-(4′-(N-diethylamino)butyl)-2-chlorophenoxazine, HCl], the IC50 – broadly, the midpoint of a concentration-inhibition curve – in data set [1] is 2000 to 5000 nM. The solubility result in data set [2] is given as “soluble in H2O”. In addition, the “complete inhibition of Akt phosphorylation and in vitro kinase activity” value in the data set on Akt is below 5 µM. Besides, the “effect on PI 3-K, PDK1, or SGK1” value in the data set with PI 3-K, PDK1, or SGK1 is “minimal effect”. In the data set on Akt phosphorylation, the “phosphorylation of Akt” value is reported as “inhibited the phosphorylation of Akt”. Further, in the data set on OPM2 cells (24 h), the “apoptosis induction, combination” value is “nearly all cells died” and the “apoptosis induction, single agent” value is given as “some apoptosis”.

As to `O=c1[nH]c2ccccc2n1C1CCN(Cc2ccc(-c3nc4cc5nc[nH]c5cc4nc3-c3ccccc3)cc2)CC1` [Akti1/2, 1,3-Dihydro-1-(1-((4-(6-phenyl-1H-imidazo[4,5-g]quinoxalin-7-yl)phenyl)methyl)-4-piperidinyl)-2H-benzimidazol-2-one], the “apoptosis induction, combination” value was “super-additive effect” in data set [3] (Akti1/2 5 or 10 μM + Imiquimod 20 μg/ml); “affected all cell lines to some extent” in data set [4] (Daudi, C7H2, 5 μM Akti1/2 + 20 μg/ml Imiquimod); “nearly all cells died” with OPM2 cells (24 h). For the same molecule, the “apoptosis induction, single agent” value (in data set [3] (Imiquimod 20 μg/ml or Akti1/2 5 or 10 μM alone); in the data set with OPM2 cells (24 h)) was “some apoptosis” throughout. For the same molecule, the solubility entry in data set [2] is on record as “soluble in DMSO”. In addition, in data set [4] (C7H2 (exception Daudi), 5 μM alone), the apoptosis induction entry is “only a mild effect”. For the same molecule, the “phosphorylation of Akt” value in the data set on Akt phosphorylation is “inhibited the phosphorylation of Akt”. In data set [5], the inhibitory effect entry is “does not exhibit any inhibitory effect”. In addition, the “sensitivity of PBMCs (general toxicity of the combination)” value in data set [6] is “as sensitive as U266 cells”.

On to `CC(C)c1cc(/C=C(\C#N)C(=O)NCCCc2ccccc2)cc(C(C)C)c1O` [SU1498], for which the IC50 with Flk-1 was 700 nM. The apoptosis induction result in the data set on U266 cells (24 h, Imi 20 μg/ml + drug 1 μM) is reported as “+”; in the data set on U266 cells (setting [7]) it was “++”; in the data set with U266 cells (setting [8]) it was “++”; in the data set on U266 cells (24 h, drug alone 1 μM) it was 0; in the data set on U266 cells (24 h, drug alone 10 μM) it was “+”; with U266 cells (24 h, drug alone 50 μM) it was “+”. Besides, the apoptosis induction result in the data set on U266 cells (48 h, Imi 20 μg/ml + drug 1 μM) is “++”; in the data set with U266 cells (setting [9]), “++”; with U266 cells (setting [10]), “++”; in the data set on U266 cells (48 h, drug alone 1 μM), 0; with U266 cells (48 h, drug alone 10 μM), “++”; in the data set with U266 cells (48 h, drug alone 50 μM), “++”. Also, the apoptosis induction entry is on record as “+” in the data set with OPM2 cells (24 h, Imi 20 μg/ml + drug 1 μM); “++” with OPM2 cells (setting [7]); “++” with OPM2 cells (setting [8]); 0 with OPM2 cells (24 h, drug alone 1 μM); “+” with OPM2 cells (24 h, drug alone 10 μM); “+” in the data set on OPM2 cells (24 h, drug alone 50 μM). Moreover, the apoptosis induction result was “++” in the data set on OPM2 cells (48 h, Imi 20 μg/ml + drug 1 μM); “+++” with OPM2 cells (setting [9]); “+++” in the data set with OPM2 cells (setting [10]); 0 in the data set with OPM2 cells (48 h, drug alone 1 μM); “+” with OPM2 cells (48 h, drug alone 10 μM); “++” in the data set on OPM2 cells (48 h, drug alone 50 μM).
